Data as given in US12437835B2, “Interrogatory cell-based assays and uses thereof” (Berg LLC, priority 2012, dated 2025).
Entries after “also recorded” stand apart in the source; their conditions may differ.

How the values were obtained:
ENO1 = molecular target: T1, ENO1 (Homo sapiens, UniProt P06733); test: Global enzyme activity analysis (ATP/ADP probe, LC-MS/MS) in HepG2; type: cell-based; settings: HepG2, Sorafenib 1 μM, 24 hours; relative to control, untreated sample
T1 construct: endogenous in cells; host or cells: HepG2 (ATCC HB-8065)
Excerpt: (§1) Multikinase inhibitor Sorafenib, a first line chemotherapeutic agent for the advanced HCC patients, was used to probe the role of global kinase activity and protein phosphorylation changes associated with this treatment. The HepG2 (ATCC Ascension No. HB-8065) cell line was selected to model HCC cells and the THLE2 (ATCC Ascension No. CRL-10149) cell line was selected to model normal hepatic cells.
(§2) FIG. 41B illustrates a method for global enzyme (e.g., kinase) enrichment profiling. First, a cell lysate including the targeted enzyme (e.g., kinase) is parepared. The second step is probe binding (e.g., an ATP probe in the case of kinase). Theny the enzyme is digested and brobe-bound fragments are captured. These fragments can be analyzed (e.g., by LC-MS/MS) and the corresponding protein thus identified (e.g., via a database search of the LC-Ms/MS data).
(§3) THERMO SCIENTIFIC© PIERCE® Kinase Enrichment Kits and ACTIVX© probes (instructions available from THERMO SCIENTIFIC© and PIERCE® Biotechnology www.thermoscientific.com/pierce) were used for global enzyme activity analysis. Briefly, these and similar kits enable selective labeling and enrichment of ATPases including kinases, chaperones and metabolic enzymes. ATP and ADP Probes are generally nucleotide derivatives, which covalently modify the active site of enzymes with conserved lysine residues in the nucleotide-binding site. For example, the structure of desthiobiotin-ATP and -ADP consists of a modified biotin attached to the nucleotide by a labile acyl-phosphate bond. Depending on the position of the lysine within the enzyme active site, either desthiobiotin-ATP or -ADP can be preferred for labeling specific ATPases.
(§4) The cells were cultured according to the following protocol. Day 1: HepG2/Hep3B—seed 3.2×10^6 cells in T-75 culture flasks; 7.4×10^6 cells in T-175 culture flasks; or 9.5×10^6 cells in T-225 culture flasks. THLE-2—seed 1.3×10^6 cells in T-75 culture flasks. Day 2: 16-24 hours later, at 50-70% confluence—add treatment. Control: DMSO at final concentration of 0.01%. EGF: 500 ng/mL in 10 mM acetic acid. […]

LDHA [1] = molecular target: T2, LDHA (Homo sapiens, UniProt P00338); test: as above; type: cell-based; settings: HepG2, Sorafenib 1 μM, 24 hours
T2 construct: endogenous in cells; host or cells: HepG2
Excerpt: as §1, §2, §3, §4

PGK1 = molecular target: T3, PGK1 (Homo sapiens, UniProt P00558); test: as above; type: cell-based; settings: HepG2, Sorafenib 1 μM, 24 hours
T3 construct: endogenous in cells; host or cells: HepG2 (ATCC HB-8065)
T3 sequence (P00558 1-417): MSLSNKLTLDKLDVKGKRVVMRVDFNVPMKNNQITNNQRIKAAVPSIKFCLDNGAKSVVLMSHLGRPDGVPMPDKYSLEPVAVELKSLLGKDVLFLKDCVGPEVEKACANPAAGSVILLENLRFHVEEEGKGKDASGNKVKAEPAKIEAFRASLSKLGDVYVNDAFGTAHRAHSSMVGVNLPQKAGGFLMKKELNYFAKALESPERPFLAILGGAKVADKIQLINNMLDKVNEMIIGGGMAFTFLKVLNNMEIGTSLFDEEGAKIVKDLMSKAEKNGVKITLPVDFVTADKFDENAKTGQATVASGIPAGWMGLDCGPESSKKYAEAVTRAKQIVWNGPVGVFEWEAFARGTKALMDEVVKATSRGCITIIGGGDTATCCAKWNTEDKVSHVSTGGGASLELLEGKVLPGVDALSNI
Excerpt: as §1, §2, §3, §4

LDHA [2] = test: Protein expression (quantitative proteomics) in HepG2; type: cell-based, Homo sapiens; settings: HepG2, Sorafenib 1 μM, 24 hours
Protocol: as §1
The cells were cultured according to the following protocol. Day 1: HepG2/Hep3B—seed 3.2×10^6 cells in T-75 culture flasks; 7.4×10^6 cells in T-175 culture flasks; or 9.5×10^6 cells in T-225 culture flasks. THLE-2—seed 1.3×10^6 cells in T-75 culture flasks. Day 2: 16-24 hours later, at 50-70% confluence—add treatment. Control: DMSO at final concentration of 0.01%. EGF: 500 ng/mL in 10 mM acetic acid. Sorafenib: 1 μM at 0.1% volume in DMSO. Day 3: 24 hours after treatment, harvest cells by trypsinization. Wash pellets 2× with PBS before freezing.
Thus, the phospho proteome affords an additional layer of information that can be used for elucidating the complex relationship between the effect of an extracellular signal (e.g., drug molecule) on kinase activity and total cellular protein, thereby facilitating the identification of disease treatment targets, as well as diagnostic/prognostic markers associated with disease.

FASN = FASN (Mus musculus, UniProt P19096); settings: in vivo; cited from earlier work
Sequence of FASN (P19096 whole entry): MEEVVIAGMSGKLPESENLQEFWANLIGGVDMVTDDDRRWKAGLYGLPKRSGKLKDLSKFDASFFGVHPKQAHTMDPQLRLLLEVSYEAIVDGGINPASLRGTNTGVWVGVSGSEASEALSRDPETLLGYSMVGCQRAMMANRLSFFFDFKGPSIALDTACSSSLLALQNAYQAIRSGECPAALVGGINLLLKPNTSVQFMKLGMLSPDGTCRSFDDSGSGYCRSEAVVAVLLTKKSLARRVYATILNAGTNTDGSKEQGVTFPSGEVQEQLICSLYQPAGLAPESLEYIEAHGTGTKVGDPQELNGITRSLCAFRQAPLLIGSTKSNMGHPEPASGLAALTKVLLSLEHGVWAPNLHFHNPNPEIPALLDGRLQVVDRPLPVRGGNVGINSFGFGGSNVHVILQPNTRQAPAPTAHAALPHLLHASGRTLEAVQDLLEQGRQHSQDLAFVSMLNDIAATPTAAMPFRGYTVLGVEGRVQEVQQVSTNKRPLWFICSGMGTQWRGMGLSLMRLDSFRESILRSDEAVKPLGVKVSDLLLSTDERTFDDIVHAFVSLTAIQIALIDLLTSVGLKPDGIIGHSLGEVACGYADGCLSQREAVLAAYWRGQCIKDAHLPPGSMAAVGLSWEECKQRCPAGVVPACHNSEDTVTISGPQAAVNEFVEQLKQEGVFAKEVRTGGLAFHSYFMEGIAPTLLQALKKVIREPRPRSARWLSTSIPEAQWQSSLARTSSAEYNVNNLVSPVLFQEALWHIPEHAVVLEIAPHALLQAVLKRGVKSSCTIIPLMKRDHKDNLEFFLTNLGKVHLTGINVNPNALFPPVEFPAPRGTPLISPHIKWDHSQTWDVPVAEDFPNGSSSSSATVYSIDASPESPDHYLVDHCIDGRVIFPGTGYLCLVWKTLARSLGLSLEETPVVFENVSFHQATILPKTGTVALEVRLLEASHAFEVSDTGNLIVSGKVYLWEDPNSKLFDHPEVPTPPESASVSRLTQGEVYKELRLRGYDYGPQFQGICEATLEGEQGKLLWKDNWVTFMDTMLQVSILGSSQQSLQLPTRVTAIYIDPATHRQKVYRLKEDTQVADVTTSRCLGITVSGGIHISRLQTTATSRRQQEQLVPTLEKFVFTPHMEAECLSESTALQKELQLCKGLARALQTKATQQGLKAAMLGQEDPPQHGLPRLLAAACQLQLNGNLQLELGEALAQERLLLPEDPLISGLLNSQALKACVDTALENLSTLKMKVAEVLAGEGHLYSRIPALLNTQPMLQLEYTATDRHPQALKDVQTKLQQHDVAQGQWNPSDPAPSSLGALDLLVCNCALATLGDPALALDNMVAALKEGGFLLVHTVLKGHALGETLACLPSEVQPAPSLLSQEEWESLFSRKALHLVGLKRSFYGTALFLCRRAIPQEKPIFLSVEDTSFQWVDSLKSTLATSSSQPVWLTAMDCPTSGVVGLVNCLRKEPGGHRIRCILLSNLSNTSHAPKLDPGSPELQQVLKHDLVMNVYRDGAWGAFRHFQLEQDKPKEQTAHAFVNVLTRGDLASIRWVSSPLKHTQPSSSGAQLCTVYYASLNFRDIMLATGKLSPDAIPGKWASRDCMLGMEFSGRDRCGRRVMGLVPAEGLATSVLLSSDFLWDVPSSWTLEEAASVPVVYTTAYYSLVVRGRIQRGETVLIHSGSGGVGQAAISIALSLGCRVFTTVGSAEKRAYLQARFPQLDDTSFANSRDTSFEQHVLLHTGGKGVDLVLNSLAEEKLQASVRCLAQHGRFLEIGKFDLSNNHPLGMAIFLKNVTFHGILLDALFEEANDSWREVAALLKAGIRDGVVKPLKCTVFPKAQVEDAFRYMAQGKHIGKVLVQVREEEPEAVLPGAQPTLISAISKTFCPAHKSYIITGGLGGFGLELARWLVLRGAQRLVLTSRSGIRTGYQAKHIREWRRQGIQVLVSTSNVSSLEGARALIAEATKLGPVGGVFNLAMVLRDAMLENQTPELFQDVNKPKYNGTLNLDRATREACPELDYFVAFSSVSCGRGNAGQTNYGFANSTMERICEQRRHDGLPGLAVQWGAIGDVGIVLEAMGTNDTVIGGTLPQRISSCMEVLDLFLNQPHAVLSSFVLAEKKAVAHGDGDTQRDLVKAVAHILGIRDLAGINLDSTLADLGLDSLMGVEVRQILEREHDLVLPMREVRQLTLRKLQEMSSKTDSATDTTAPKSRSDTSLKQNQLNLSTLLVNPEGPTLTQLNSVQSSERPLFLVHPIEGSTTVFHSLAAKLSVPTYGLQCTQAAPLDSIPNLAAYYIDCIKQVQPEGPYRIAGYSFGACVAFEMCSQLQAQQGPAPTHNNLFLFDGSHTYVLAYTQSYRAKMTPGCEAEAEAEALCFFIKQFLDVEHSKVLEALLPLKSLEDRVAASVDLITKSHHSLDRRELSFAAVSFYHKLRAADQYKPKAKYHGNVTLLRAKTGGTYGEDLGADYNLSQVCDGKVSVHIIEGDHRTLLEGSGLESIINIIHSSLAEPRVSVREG

T1 sequence (P06733 whole entry): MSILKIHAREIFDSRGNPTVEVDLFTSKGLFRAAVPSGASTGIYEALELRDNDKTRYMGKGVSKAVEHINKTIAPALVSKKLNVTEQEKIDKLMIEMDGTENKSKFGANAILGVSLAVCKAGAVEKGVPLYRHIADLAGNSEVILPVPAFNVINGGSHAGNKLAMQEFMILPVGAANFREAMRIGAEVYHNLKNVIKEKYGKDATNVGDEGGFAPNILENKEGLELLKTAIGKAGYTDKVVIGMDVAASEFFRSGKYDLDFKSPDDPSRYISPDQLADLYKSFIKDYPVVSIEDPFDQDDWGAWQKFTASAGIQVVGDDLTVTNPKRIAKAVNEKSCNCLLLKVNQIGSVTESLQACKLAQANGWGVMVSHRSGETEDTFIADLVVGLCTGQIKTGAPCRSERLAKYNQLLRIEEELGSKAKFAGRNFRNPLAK

Compound	ENO1 activity (ENO1)	LDHA activity (LDHA [1])	PGK1 activity (PGK1)	LDHA protein expression (LDHA [2])	food intake (FASN)	weight loss (FASN)
CNC(=O)c1cc(Oc2ccc(NC(=O)Nc3ccc(Cl)c(C(F)(F)F)c3)cc2)ccn1 [Sorafenib]	significant decrease; also recorded: downregulating	significant decrease; also recorded: downregulating	significant decrease; also recorded: downregulating	upregulation	–	–
C=C1C(=O)OC(CCCCCCCC)C1C(=O)O (centres unmarked) [C75]	–	–	–	–	reducing food intake	weight loss
C/C=C/C/C=C/CCC(=O)[C@H]1O[C@H]1C(N)=O [Cerulenin]	–	–	–	–	reducing food intake	weight loss
